Assay results: US11912693B2, “Compounds for modulating S1P1 activity and methods of using the same” (TREVENA, INC., priority 2017, dated 2024)

Columns and labels:
[1] = molecular target: T1, human sphingosine-1-phosphate receptor 1 (S1P1) (Homo sapiens (Human), UniProt P21453); assay: Inhibition of cAMP production (HTRF cAMP HiRange), S1P1 CHO-K1 cells; assay type: cell-based; conditions: for Emax: CHO-K1, efficacy (SPAN) normalized to fingolimod, read-out: hS1P1 cAMP SPAN
Method: (§1) Stable clonal Chinese hamster ovary K1 (CHO-K1) cells co-expressing EA-β-arrestin2 and the human sphingosine-1-phosphate receptor 1 (NM_001400, S1P1) with a C-terminal Prolink™ tag were purchased from DiscoverX corporation (Cat #: 93-0207C2).
(§2) Cell lines were cultured in AssayComplete™ Media 6 (DiscoverX Corporation, Cat #: 920018GF2) at 37° C. and 5% CO2 in a humidified CO2 and temperature-controlled incubator. To begin assay plating, cells were washed with dulbecco's phosphate buffered saline (CellGro, Cat #: 21-031-CV) and lifted from the culturing flask by incubation (37° C., 5 min) with CellStripper (Cellgro, Cat #: 25-056-CI). […] Plated cells were incubated overnight at 37° C. and 5% CO2 in a humidified CO2 and temperature-controlled incubator. Detecting Inhibition of cAMP Production
Agonist-promoted G-protein responses were determined by measuring changes in intracellular cAMP using the HTRF® cAMP HiRange kit (CisBio, Cat #: 62AM6PEJ) based on time-resolved fluorescence resonance energy transfer (TR-FRET) technology. […] Following a 30-minute incubation at 37° C. and 5% CO2 in a humidified CO2 and temperature-controlled incubator, the components of the cAMP HiRange kit were added as per the manufacturer's instructions. After an hour incubation at room temperature, plates were analyzed by a BMG PheraStar microplate reader.
(§3) The tables below include the efficacy of the compound as compared to a positive control, referred to as “SPAN”. These values are normalized to fingolimod, a known agonist of the sphingosine-1-phosphate 1 receptor. The tables also include potency values (pEC50) for modulating discrete receptor-mediated activities (inhibition of cAMP production and […] recruitment).
Target sequence in this assay (P21453 whole entry, looked up): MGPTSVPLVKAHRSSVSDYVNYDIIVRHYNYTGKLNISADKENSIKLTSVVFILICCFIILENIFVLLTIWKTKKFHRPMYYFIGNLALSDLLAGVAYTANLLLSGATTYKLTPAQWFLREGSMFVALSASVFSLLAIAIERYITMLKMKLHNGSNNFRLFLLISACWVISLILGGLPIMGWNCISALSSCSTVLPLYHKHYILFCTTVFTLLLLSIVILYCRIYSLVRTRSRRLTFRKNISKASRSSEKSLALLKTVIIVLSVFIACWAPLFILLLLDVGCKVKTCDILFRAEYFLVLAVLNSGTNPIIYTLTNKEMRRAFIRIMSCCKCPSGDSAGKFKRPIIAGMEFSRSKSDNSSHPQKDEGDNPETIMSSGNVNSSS

[2] = molecular target: T1, human sphingosine-1-phosphate receptor 1 (S1P1); assay: β-Arrestin2 recruitment assay (PathHunter), S1P1 CHO-K1 cells; assay type: cell-based; conditions: for Emax: CHO-K1, efficacy (SPAN) normalized to fingolimod, read-out: hS1P1 B-arrestin2 SPAN
Method: as §1, §2
Target sequence in this assay (P21453 whole entry, looked up): as above
Target sequence in this assay (P32121 whole entry partner, looked up): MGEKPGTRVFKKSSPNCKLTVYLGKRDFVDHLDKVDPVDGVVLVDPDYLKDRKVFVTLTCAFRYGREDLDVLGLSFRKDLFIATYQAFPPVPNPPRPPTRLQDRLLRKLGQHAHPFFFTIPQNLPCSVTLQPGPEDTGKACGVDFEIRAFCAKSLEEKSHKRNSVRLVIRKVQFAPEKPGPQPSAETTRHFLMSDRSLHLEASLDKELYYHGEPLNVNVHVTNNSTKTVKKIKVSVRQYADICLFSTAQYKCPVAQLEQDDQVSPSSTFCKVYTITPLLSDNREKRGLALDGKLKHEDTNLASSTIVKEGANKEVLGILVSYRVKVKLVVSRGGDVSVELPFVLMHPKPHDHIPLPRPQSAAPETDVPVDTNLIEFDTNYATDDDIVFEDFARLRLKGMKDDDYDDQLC
Agonist-promoted β-arrestin2 recruitment to the sphingosine-1-phosphate 1 receptor was determined using the β-arrestin PathHunter®) Detection kit (DiscoverX Corporation, Cat #: 93-0001). […] In cells that stably express these fusion proteins, stimulation with a cognate agonist results in the interaction of […] and the Prolink™-tagged GPCR. This allows the complementation of the two β-galactosidase fragments and results in the formation of a functional enzyme with β-galactosidase activity. […] Following a 60 minute incubation at 37° C. and 5% CO2 in a humidified CO2 and temperature-controlled incubator, the components of the β-arrestin PathHunter® Detection kit were added as per the manufacturer's instructions. After an hour incubation at room temperature, plates were analyzed by a BMG PheraStar microplate reader.
as §3

[3] = inhibition of cAMP production, S1P1 CHO-K1 cells
[4] = β-arrestin2 recruitment, S1P1 CHO-K1 cells

| Structure (SMILES) | hS1P1 cAMP pEC50 [1, 3] | hS1P1 B-arrestin2 pEC50 [2, 4] | Emax [1] | Emax [2] | EC50 ([1]; inhibition of cAMP production, S1P1 CHO-K1 cells, read-out: hS1P1 cAMP pEC50 (converted)) | EC50 ([2]; β-arrestin2 recruitment, S1P1 CHO-K1 cells, read-out: hS1P1 B-arrestin2 pEC50 (converted)) |
| --- | --- | --- | --- | --- | --- | --- |
| CC(C)Oc1ccccc1-c1noc(-c2ccc3c(c2)nnn3C(C)C)n1 [Compound 62, 3-(2-isopropoxyphenyl)-5-(1-isopropyl-1H-benzo[d][1,2,3]triazol-5-yl)-1,2,4-oxadiazole] | <6.5 | <5 |  |  |  |  |
| CC(C)n1nnc2cc(-c3ncc(-c4ccccc4F)s3)ccc21 [Compound 63, 5-(2-fluorophenyl)-2-(1-isopropyl-1H-benzo[d][1,2,3]triazol-5-yl)thiazole] | >6.5 | <5 |  |  |  |  |
| CC(C)n1nnc2cc(-c3noc(-c4cccc(F)c4)n3)ccc21 [Compound 64, 5-(3-fluorophenyl)-3-(1-isopropylbenzotriazol-5-yl)-1,2,4-oxadiazole] | >6.5 | <5 |  |  |  |  |
| CCC1(CC)CC(=O)c2cc(-c3nc(-c4ccc(OC)cc4)no3)ccc2O1 [Compound 65, 2,2-diethyl-6-(3-(4-methoxyphenyl)-1,2,4-oxadiazol-5-yl)chroman-4-one] | <6.5 | <5 | < 75% | < 75% |  |  |
| CCC1(CC)CC(=O)c2cc(-c3nc(-c4ccccc4C)no3)ccc2O1 [Compound 66, 2,2-diethyl-6-(3-(o-tolyl)-1,2,4-oxadiazol-5-yl)chroman-4-one] | >6.5 | >5 | > 75% | > 75% |  |  |
| CCC1(CC)CC(=O)c2cc(-c3nnc(-c4ccc5c(c4)nnn5C(C)C)s3)ccc2O1 [Compound 67, 2,2-diethyl-6-(5-(1-isopropyl-1H-benzo[d][1,2,3]triazol-5-yl)-1,3,4-thiadiazol-2-yl)chroman-4-one] | <6.5 | >5 | > 75% | < 75% |  |  |
| CCC1(CC)CC(=O)c2cc(-c3nc(-c4ccc(Cl)cc4)no3)ccc2O1 [Compound 68, 6-[3-(4-chlorophenyl)-1,2,4-oxadiazol-5-yl]-2,2-diethyl-chroman-4-one] | <6.5 | <5 | < 75% | < 75% |  |  |
| COc1ccc(-c2nc(-c3ccc4c(c3)nnn4C(C)C)no2)cc1 [Compound 69, 3-(1-isopropylbenzotriazol-5-yl)-5-(4-methoxyphenyl)-1,2,4-oxadiazole] | <6.5 | >5 | < 75% | < 75% |  |  |
| CC(C)n1nnc2cc(-c3nnc(-c4ccccc4O)s3)ccc21 [Compound 70, 2-{5-[1-(propan-2-yl)-1H-1,2,3-benzotriazol-5-yl]-1,3,4-thiadiazol-2-yl}phenol] | >6.5 | >5 | < 75% | < 75% |  |  |
| CCC1(CC)CC(=O)c2cc(-c3nc(-c4cccc(OC)c4)no3)ccc2O1 [Compound 71, 2,2-diethyl-6-(3-(3-methoxyphenyl)-1,2,4-oxadiazol-5-yl)chroman-4-one] | <6.5 | <5 | > 75% | < 75% |  |  |
| CCC1(CC)CC(=O)c2cc(-c3nc(-c4ccc(O)cc4)no3)ccc2O1 [Compound 72, 2,2-diethyl-6-[3-(4-hydroxyphenyl)-1,2,4-oxadiazol-5-yl]chroman-4-one] | >6.5 | >5 | > 75% | > 75% |  |  |
| Cn1nnc2cc(-c3noc(-c4ccccc4Br)n3)ccc21 [Compound 73, 5-(2-bromophenyl)-3-(1-methyl-1H-benzo[d][1,2,3]triazol-5-yl)-1,2,4-oxadiazole] | <6.5 | >5 | < 75% | < 75% |  |  |
| Cc1ccc(-c2nc(-c3ccc4c(c3)nnn4C(C)C)no2)s1 [Compound 74, 5-[5-(5-methylthiophen-2-yl)-1,2,4-oxadiazol-3-yl]-1-(propan-2-yl)-1H-1,2,3-benzotriazole] | <6.5 | <5 | < 75% | < 75% |  |  |
| Cc1ccsc1-c1noc(-c2ccc3c(c2)nnn3CC(C)C)n1 [Compound 75, 1-(2-methylpropyl)-5-[3-(3-methylthiophen-2-yl)-1,2,4-oxadiazol-5-yl]-1H-1,2,3-benzotriazole] | >6.5 | >5 | < 75% | > 75% |  |  |
| CCCn1nnc2cc(-c3nc(-c4cc(C)cc(C)c4)no3)ccc21 [Compound 76, 5-[3-(3,5-dimethylphenyl)-1,2,4-oxadiazol-5-yl]-1-propyl-1H-1,2,3-benzotriazole] | <6.5 | <5 | < 75% | < 75% |  |  |

Results, then the molecule that gave them:

| hS1P1 cAMP pEC50 [1, 3] | hS1P1 B-arrestin2 pEC50 [2, 4] | Emax [1] | Emax [2] | EC50 ([1]; inhibition of cAMP production, S1P1 CHO-K1 cells, read-out: hS1P1 cAMP pEC50 (converted)) | EC50 ([2]; β-arrestin2 recruitment, S1P1 CHO-K1 cells, read-out: hS1P1 B-arrestin2 pEC50 (converted)) | Structure (SMILES) |
| --- | --- | --- | --- | --- | --- | --- |
|  |  | < 75% | < 75% |  |  | Cc1cc(-c2noc(-c3ccc4c(c3)nnn4C3CCCC3)n2)ccn1 [Compound 77] |
| <6.5 | <5 | < 75% | < 75% |  |  | CC(C)n1nnc2cc(-c3noc(-c4cnccn4)n3)ccc21 [Compound 78, 3-(1-isopropyl-1H-benzo[d][1,2,3]triazol-5-yl)-5-(pyrazin-2-yl)-1,2,4-oxadiazole] |
| >6.5 | >5 | > 75% | > 75% |  |  | CC(C)n1nnc2cc(-c3nc(-c4ccccc4)no3)ccc21 [Compound 79, 5-(3-phenyl-1,2,4-oxadiazol-5-yl)-1-(propan-2-yl)-1H-1,2,3-benzotriazole] |
| >6.5 | <5 | < 75% | < 75% |  |  | FC(F)Oc1ccc(-c2noc(-c3ccc4c(c3)nnn4C3CCCC3)n2)cc1 [Compound 80, 1-cyclopentyl-5-{3-[4-(difluoromethoxy)phenyl]-1,2,4-oxadiazol-5-yl}-1H-1,2,3-benzotriazole] |
|  |  | > 75% | < 75% | > 0.316 µM | > 10 µM | COC(=O)Cn1nnc2cc(-c3noc(-c4ccccc4Br)n3)ccc21 [Compound 81, methyl 2-(5-(5-(2-bromophenyl)-1,2,4-oxadiazol-3-yl)-1H-benzo[d][1,2,3]triazol-1-yl)acetate] |
| <6.5 | <5 | < 75% | < 75% |  |  | Clc1ccc(-c2noc(-c3ccc4c(c3)nnn4C3CCOCC3)n2)s1 [Compound 82, 5-[3-(5-chlorothiophen-2-yl)-1,2,4-oxadiazol-5-yl]-1-(oxan-4-yl)-1H-1,2,3-benzotriazole] |
| >6.5 | >5 | > 75% | > 75% |  |  | Brc1ccccc1-c1noc(-c2ccc3c(c2)nnn3C2CC2)n1 [Compound 83, 5-[3-(2-bromophenyl)-1,2,4-oxadiazol-5-yl]-1-cyclopropyl-1H-1,2,3-benzotriazole] |
| <6.5 | >5 | < 75% | > 75% |  |  | FC(F)(F)Oc1ccccc1-c1nc(-c2ccc3c(c2)nnn3C2CCCC2)no1 [Compound 84, 3-(1-cyclopentyl-1H-benzo[d][1,2,3]triazol-5-yl)-5-(2-(trifluoromethoxy)phenyl)-1,2,4-oxadiazole] |
| <6.5 | <5 | < 75% | < 75% |  |  | FC(F)(F)c1cc(-c2noc(-c3ccc4c(c3)nnn4C3CC3)n2)ccc1OCc1ccccc1 [Compound 85, 5-{3-[4-(benzyloxy)-3-(trifluoromethyl)phenyl]-1,2,4-oxadiazol-5-yl}-1-cyclopropyl-1H-1,2,3-benzotriazole] |
| <6.5 | <5 | < 75% | > 75% |  |  | Cc1cc(-c2nc(-c3ccc4c(c3)nnn4C(C)C)no2)ccn1 [Compound 86, 3-(1-isopropyl-1H-benzo[d][1,2,3]triazol-5-yl)-5-(2-methylpyridin-4-yl)-1,2,4-oxadiazole] |
